Experimental data from PMC9481563, “Structural insights into the pSer/pThr dependent regulation of the SHP2 tyrosine phosphatase in insulin and CD28 signaling” (Nature Communications, 2022).
“Also recorded” adds a separate entry of the source.

Tests used:
[1] = tested on: SHP2; settings: SHP2 substrate sites, cutoff > 0.5 for genuine substrates; ref [1] Barr AJ et al., Cell 136, 352-63 (2009); cited from earlier work
Description: page 80: Supplementary tables Peptide name Sequence Activity (Arb. u.) CADH2-Y785 […] 0.7 ERBB2-Y1248 […]- 0.6 PGFRB-Y751 […] 1 LCK-Y394 […] 1.3 CSK-Y184 […] 1.5 GHR-Y487 […] 0.8 TIE2-Y816 […] 1.2 ERBB2-Y1139 […] 1.2 WASP-Y290 […] 0.6 PAXI-Y118 […] 0.8 Supplementary table 1. SHP2 substrate sites derived from a large-scale comparative study with quantitative results. A cutoff of > 0.5 was applied to separate genuine SHP2 substrates from spurious signals. ...

[2] = tested on: tyrosine kinase domain of the human insulin receptor (InsR); experiment: Capillary electrophoresis phosphorylation assay, InsR kinase domain; assay type: biochemical; settings: CE assay, effect of pSer vs non-phosphorylated peptide of the pair; 1 mM ATP, pH 7.5; n = 1
Procedure: Ni-NTA purified stocks were subjected to anion exchange chromatography using an Äkta explorer instrument (Amersham Pharmacia) and Resource Q columns (GE healthcare). Prior to anion exchange, all proteins were dialyzed overnight against a low salt buffer (10–50 mM NaCl, 20 mM TRIS [pH = 8.0], 10% glycerol and 1 mM 1,4-dithiothreitol [DTT]) using a Servapor MWCO 12,000–14,000 membrane. Proteins loaded onto the column were eluted using a salt gradient up to 1 M NaCl over 30 min. Purity of proteins was assessed by SDS-PAGE and final samples were typically found to have >95% purity (see Supplementary figs. 85, 86). The protein aliquots were snap-frozen in liquid nitrogen and stored in −80 °C. […]
Phosphorylation and dephosphorylation assays with peptides were performed using capillary electrophoresis on an Agilent Capillary Electrophoresis ^3DCE system (Agilent Technologies, Waldbronn, Germany) applying DB-WAX coated silica capillary having a 33.5 cm total and 25 cm effective length with 50 μm I.D. (Agilent Technologies, Santa Clara, CA, USA). On-line absorption at 200 nm was monitored by DAD UV-Vis detector. […] Kinetic curves in the article are always presented with exponential fits (that approximate the integrated Michaelis-Menten functions decently on the measured time intervals).

[3] = tested on: wild-type SHP2 catalytic domain; experiment: Capillary electrophoresis dephosphorylation assay, SHP2 catalytic domain; assay type: biochemical, human; settings: for % nominal product: WT-SHP2 catalytic domain
Procedure: Phosphorylation and dephosphorylation assays with peptides were performed using capillary electrophoresis on an Agilent Capillary Electrophoresis ^3DCE system (Agilent Technologies, Waldbronn, Germany) applying DB-WAX coated silica capillary having a 33.5 cm total and 25 cm effective length with 50 μm I.D. (Agilent Technologies, Santa Clara, CA, USA). On-line absorption at 200 nm was monitored by DAD UV-Vis detector. The capillary was thermostated at 25 °C. Before measurements the capillary was rinsed subsequently with distilled water for 15 min and between measurements with BGE (100 mM trimethylamine-phosphate buffer (pH 2.5)) for 3 min. Samples were injected by 5 × 103 Pa pressure for 6 s. Runs were performed in the positive-polarity mode with 20 kV. […] The reaction was initialized by addition of the phosphatase enzyme. Kinase reactions were realized with the following buffer: 20 mM potassium phosphate (monobasic), 15 mM sodium phosphate (dibasic), 100 mM NaCl, 5 mM MgCl2, 5% glycerol, 0,05% non-ionic detergent IGEPAL, pH 7.5; reaction was started with the addition of 1 mM of ATP. Sampling from reactions was done in real time, except when conditions required pre-concentration of samples (with PTP1B only). In the latter case, reactions were run in 15 ml Falcon tubes, using an NH4HCO3-based buffer (100 mM end concentration), with 5 nM enzyme. After heat inactivation (10 min at 75 °C), the latter samples were lyophilized until dry and reconstituted in 40 ul distilled H2O. Kinetic curves in the article are always presented with exponential fits (that approximate the integrated Michaelis-Menten functions decently on the measured time intervals).

[4] = tested on: HEK293T cells co-transfected with IRS1-FLAG (wild-type or Ser/Ala mutant) and constitutive active SHP2; experiment: Cell-based IRS1 Y612 phosphorylation assay (western blot) after insulin; design: species or system human
Procedure: HEK293T cells (#CRL-3216 ATCC, Manassas, VA USA) were maintained in DMEM (#41966029 Gibco, Waltham MA USA) supplemented with 10% FBS (#10500064 Gibco), 1% penicillin-streptomycin (#P0781-100ML Sigma, St. Louis MI USA) and 0.1% Amphotericin B (#15290026 Gibco). Cells were plated into 24-well plates in 7.5 × 10^4/well concentration and co-transfected with wild-type or Ser/Ala mutant pcDNA3.1-IRS1-FLAG and constitutive active pcDNA3.1-SHP2 plasmids using Lipofectamine 3000 (#L3000008 Invitrogen) reagent following the manufacturer’s instruction. After overnight serum-starvation cells were treated with 1 µM insulin (I9278, Sigma) for 0–30 min and harvested in Western sample buffer. Samples were run in 4–20% gradient gel (#4561096 BioRad, Hercules, CA USA) and transferred to nitrocellulose membrane using Transblot-Turbo System (#1704271 BioRad). Membranes were incubated in 1:5000 M2 anti-FLAG (#1804-200UG Sigma) and 1:1000 anti-pY612-IRS1 (#44-816 G Invitrogen) overnight and labelled with 1:10000 IRDye anti- mouse 680 (#92668070 LICOR Biosciences, Lincoln, NE USA) and 1:10.000 IRDye anti- rabbit 800 […] (#92632211 LICOR Biosciences) secondary antibodies. Membranes were scanned using the Odyssey CLx Fluorescence Imaging System (LICOR Biosciences, v5.2.5.).

[5] = 19 min, average of 3 replicates
[6] = 35 min, average of 3 replicates

ARLIEDNEYTAREGAKF [LCK-Y394, SHP2 substrate site peptide from a large-scale comparative study]
Activity (Arb. u.) [1]: 1.3 Arb. u.

DAETSKLIYDFIEDQGG [WASP-Y290, SHP2 substrate site peptide from a large-scale comparative study]
Activity (Arb. u.) [1]: 0.6 Arb. u.

GGGEEDQDYDLSQLQQP [CADH2-Y785, SHP2 substrate site peptide from a large-scale comparative study]
Activity (Arb. u.) [1]: 0.7 Arb. u.

GRKGSGDYMPM{pSer}PKS [0pIRS1, IRS1 Y632 peptide with pSer only, InsR kinase substrate]
tyrosine phosphorylation by InsR kinase (in words) [2]: failed to indicate any major effect; also recorded: altered kinetics to a very limited degree

HPPEPKSPGE{pTyr}VNIEFGS [p0Rev-IRS1, IRS1 Y896 peptide, phosphotyrosine-only, used for dephosphorylation assays]
% nominal product [3, 5]: 2.9% | % nominal product ([3]; 19 min, replicate 01): 4.9% | % nominal product ([3]; 19 min, replicate 02): 4.1% | % nominal product ([3]; 19 min, replicate 03): -0.2% | % nominal product [3, 6]: 2.1% | % nominal product ([3]; 35 min, replicate 01): 2.3% | % nominal product ([3]; 35 min, replicate 02): 1.9% | % nominal product ([3]; 35 min, replicate 03): 2.2% | % nominal product ([3]; 51 min, replicate 01): 8.3% | % nominal product ([3]; 51 min, replicate 02): 2.0% | % nominal product ([3]; 51 min, replicate 03): 1.3%

HPPEPK{pSer}PGEYVNIEFGS [0pRev-IRS1, IRS1 Y896 motif peptide with −4 pSer only]
tyrosine phosphorylation by InsR kinase (in words) [2]: altered kinetics to a very limited degree; also recorded: no major differences

HPPEPK{pSer}PGE{pTyr}VNIEFGS [ppRev-IRS1, IRS1 Y896 peptide with pSer in addition to pTyr, for dephosphorylation assays]
tyrosine dephosphorylation rate (in words) ([3]; CE assay, substrate 50 μM, enzyme 25 nM, 50 mM TRIS, 150 mM NaCl, 1 mM EDTA, 2 mM DTT, IGEPAL 0.1%, pH 7.4): superior reaction rates; also recorded: greatly enhanced | % nominal product [3, 5]: 47.8% | % nominal product ([3]; 19 min, replicate 01): 47.7% | % nominal product ([3]; 19 min, replicate 02): 59.3% | % nominal product ([3]; 19 min, replicate 03): 36.5% | % nominal product [3, 6]: 52.8% | % nominal product ([3]; 35 min, replicate 01): 58.7% | % nominal product ([3]; 35 min, replicate 02): 60.4% | % nominal product ([3]; 35 min, replicate 03): 39.2% | % nominal product ([3]; 51 min, average of 3 replicates): 55.2% | % nominal product ([3]; 51 min, replicate 01): 60.3% | % nominal product ([3]; 51 min, replicate 02): 61.2% | % nominal product ([3]; 51 min, replicate 03): 44.1%

KNNPDPTIYPVLDWNDI [TIE2-Y816, SHP2 substrate site peptide from a large-scale comparative study]
Activity (Arb. u.) [1]: 1.2 Arb. u.

LTCSPQPEYVNQPDVRP [ERBB2-Y1139, SHP2 substrate site peptide from a large-scale comparative study]
Activity (Arb. u.) [1]: 1.2 Arb. u.

MSKDESVDYVPMLDMKG [PGFRB-Y751, SHP2 substrate site peptide from a large-scale comparative study]
Activity (Arb. u.) [1]: 1 Arb. u.

RVGEEEHVYSFPNKQKS [PAXI-Y118, SHP2 substrate site peptide from a large-scale comparative study]
Activity (Arb. u.) [1]: 0.8 Arb. u.

SSLSNIDFYAQVSDITP [GHR-Y487, SHP2 substrate site peptide from a large-scale comparative study]
Activity (Arb. u.) [1]: 0.8 Arb. u.

TPTAENPEYLGLDVPV- [ERBB2-Y1248, SHP2 substrate site peptide from a large-scale comparative study]
Activity (Arb. u.) [1]: 0.6 Arb. u.

TVAAQDEFYRSGWALNM [CSK-Y184, SHP2 substrate site peptide from a large-scale comparative study]
Activity (Arb. u.) [1]: 1.5 Arb. u.

wt
pY612-IRS1/FLAG ratio, Median value ([4]; Supp Fig 13, baseline analysis, median of 12): 0.0394 | pY612-IRS1/FLAG ratio, Median value ([4]; Supp Fig 13, time course analysis, 0 min, median of 10): 0.0379 | pY612-IRS1/FLAG ratio, Median value ([4]; Supp Fig 13, time course analysis, 15 min, median of 10): 0.4550 | pY612-IRS1/FLAG ratio, Median value ([4]; Supp Fig 14, baseline analysis, median of 3): 0.0140
